Assay results published in patent publication US20190274978A1, “ANTIBACTERIAL COMPOSITIONS” (priority 2016, published 2019).
Entries after “also recorded” stand apart in the source; their conditions may differ.

Columns and labels:
Klebsiella pneumoniae [1] = conditions: Rajamuthiah et al. (2015), compound alone; cited from earlier work
Pseudomonas aeruginosa [2] = conditions: Rajamuthiah et al. (2015), compound alone; cited from earlier work
MRSA = conditions: Rajamuthiah et al. (2014, 2015); cited from earlier work
Enterococcus faecium = conditions: Rajamuthiah et al. (2015); cited from earlier work
Enterobacter aerogenes = conditions: Rajamuthiah et al. (2015), compound alone; cited from earlier work
Acinetobacter baumannii [3] = conditions: Rajamuthiah et al. (2015), compound alone; cited from earlier work
M. tuberculosis = conditions: de Carvalho et al. (2011); cited from earlier work
Pseudomonas aeruginosa [4] = assay: Antibiotic combination growth assay (384-well checkerboard, OD600)
Escherichia coli = assay: as above
E. coli strain 7KO:roGFP = assay: Real-time measurement of intrabacterial redox potential (roGFP)
Method: (§1) Cells were fixed with N-ethylmaleimide at various time points post niclosamide incubation, and then passed through a flow cytometry system. The ImageStream recorded each individual cell and all images were processed automatically.
In vivo analysis of the intrabacterial redox potential was performed at 30° C. in a Synergy H1 Multimode plate reader (BioTek) with excitation measured at 405 and 480 nm and emission measured at 510 nm. Log phase bacterial cultures of 7KO:roGFP or 7KOΔtolC:roGFP were resuspended in 0.9% saline at OD 1.0, and 100 μL aliquots were loaded in individual wells of a black, clear-bottom 96-well plate. Background signals from the non-fluorescent (i.e., without pRSETB-RoGFP2) corresponding strain were obtained in the same experiment. Fluorescence signals were followed for 160-180 min, and the resulting 405/480 ratio signals were calculated. […] Reduced and oxidized controls were obtained within each experiment using a final concentration of 10 mM H2O2 or 1 mM DTT respectively.
Samples were analyzed by the AMNIS ImageStream as previously described (van der Heijden et al. (2015) Proc Natl Acad Sci USA 112, 560-565). The laser intensities for 405, 488, 658, and 785 nm were 100, 120, 20, and 3.8, respectively. The data files were further analyzed using IDEAS software, version 6.0.129.0, which is supplied by AMNIS. Bacterial cells were selected based on fluorescence at 660 nm. Every image of an infected cell was then selected by the program based on fluorescent intensity at 660 nm. Based on this selection, a mask was created that was used for analysis of the 405/480 nm ratio. The resulting 405/480 ratio signals were plotted in a histogram. Reduced and oxidized controls were obtained within each experiment, and all values were normalized to oxidized and reduced ratio values.
In vivo analysis of the intrabacterial redox potential was done at 30° C. in a Synergy H1 Multimode plate reader (BioTek) with excitation at 405 and 480 nm while emission was measured at 510 nm. Log phase bacterial cultures were resuspended in 0.9% saline at OD 1.0, and 200 μL per well were loaded in a black, clear-bottom 96-well plate. Background signals from the nonfluorescent corresponding strain were obtained in the same experiment.

Acinetobacter baumannii [5] = assay: Antibiotic combination growth assay (384-well checkerboard, OD600); conditions: in conjunction with a polymyxin (polymyxin B or polymyxin E (colistin)); ATCC type strain 19606; FIGS. 37-40
[6] = system: E. coli strain 7KOΔtolC:roGFP; assay: Real-time measurement of intrabacterial redox potential (roGFP); conditions: niclosamide alone in strain with in-frame deletion of tolC; FIG. 59
Method: as §1
In vivo analysis of the intrabacterial redox potential was performed at 30° C. in a Synergy H1 Multimode plate reader (BioTek) with excitation measured at 405 and 480 nm and emission measured at 510 nm. Log phase bacterial cultures of 7KO:roGFP or 7KOΔtolC:roGFP were resuspended in 0.9% saline at OD 1.0, and 100 μL aliquots were loaded in individual wells of a black, clear-bottom 96-well plate. Background signals from the non-fluorescent (i.e., without pRSETB-RoGFP2) corresponding strain were obtained in the same experiment. Fluorescence signals were followed for 160-180 min, and the resulting 405/480 ratio signals were calculated. […]
Samples were analyzed by the AMNIS ImageStream as previously described (van der Heijden et al. (2015) Proc Natl Acad Sci USA 112, 560-565). […] The data files were further analyzed using IDEAS software, version 6.0.129.0, which is supplied by AMNIS. Bacterial cells were selected based on fluorescence at 660 nm. […]
In vivo analysis of the intrabacterial redox potential was done at 30° C. in a Synergy H1 Multimode plate reader (BioTek) with excitation at 405 and 480 nm while emission was measured at 510 nm. […]

[7] = system: Mycobacterium tuberculosis; conditions: cited from earlier work
macrophages = conditions: cited from earlier work
[8] = system: quorum sensing system in Pseudomonas aeruginosa; conditions: among FDA-approved drugs tested, Imperi et al. (2013); cited from earlier work
Klebsiella pneumoniae [9] = assay: Antibiotic combination growth assay (384-well checkerboard, OD600); conditions: in conjunction with a polymyxin (polymyxin B or polymyxin E (colistin)); antibiotic-resistant and laboratory strains; FIGS. 21-28
Salmonella enterica = assay: as above; format: cell-based; conditions: in conjunction with a polymyxin (polymyxin B or polymyxin E (colistin)); Serovar Typhimurium (SL1344); FIGS. 33-36
[10] = system: methicillin-resistant Staphylococcus aureus (MRSA); conditions: Lau et al. (2015), under the assay conditions used; cited from earlier work
Gram negative bacteria = conditions: in combination with an efflux pump inhibitor (e.g. TolC efflux pump inhibitor); PCT/NZ2015/050192; cited from earlier work
P. aeruginosa = conditions: Imperi et al. (2013), FIG. 2A there; cited from earlier work
Enterobacter cloacae = assay: Antibiotic combination growth assay (384-well checkerboard, OD600); conditions: in conjunction with a polymyxin (polymyxin B or polymyxin E (colistin)); subsp. cloacae ATCC 13047; FIGS. 29-32

Q: What does the source list for `O=C(Nc1cc(Cl)cc(Cl)c1O)c1c(O)c(Cl)cc(Cl)c1Cl` [oxyclozanide, 2,3,5-trichloro-N-(3,5-dichloro-2-hydroxyphenyl)-6-hydroxybenzamide]?
A: inhibition of growth (Klebsiella pneumoniae [1]): neither niclosamide nor oxyclozanide were active; inhibition of growth (Pseudomonas aeruginosa [2]): neither niclosamide nor oxyclozanide were active; toxicity / activity against MRSA (MRSA): directly toxic; toxicity to Enterococcus faecium (Enterococcus faecium): directly toxic; inhibition of growth (Enterobacter aerogenes): neither niclosamide nor oxyclozanide were active; inhibition of growth (Acinetobacter baumannii [3]): neither niclosamide nor oxyclozanide were active

Q: Which “uncoupling of the membrane potential” value (M. tuberculosis) does the source give for `CC(=O)Oc1ccccc1C(=O)Nc1ncc([N+](=O)[O-])s1` [nitazoxanide, 2-acetyloxy-N-(5-nitro 2-thiazolyl)benzamide] here?
A: Its value is “uncoupled the membrane potential”.

Q: With Gramicidin as the molecule, how does the “growth inhibition effect of the combination” value (“growth inhibition effect” below) (Pseudomonas aeruginosa [4]; gramicidin with niclosamide, antibiotic-resistant clinical isolate (NZ isolate AR 00/537), FIGS. 43-44) read?
A: Its value is “synergistic growth inhibition effect”.

Q: What about the “growth inhibition effect” value (Escherichia coli; gramicidin with niclosamide, E. coli laboratory strain W3110, FIGS. 41-42) of the same molecule?
A: Its value is “synergistic growth inhibition effect”.

Q: For `O=C(Nc1ccc([N+](=O)[O-])cc1Cl)c1cc(Cl)ccc1O` [niclosamide, N-(2′-chloro-4′-nitrophenyl)-5-chlorosalicylamide], which inhibition of growth (Klebsiella pneumoniae [1]) is on record?
A: The inhibition of growth was “neither niclosamide nor oxyclozanide were active”.

Q: And the “growth inhibition effect” value (Pseudomonas aeruginosa [4]; in conjunction with a polymyxin (polymyxin B or polymyxin E (colistin)), antibiotic-resistant and laboratory strains, FIGS. 13-20)?
A: Its value is “synergistic growth inhibition effect”.

Q: What about the “intracellular redox stress (405/480 nm ratio)” value (E. coli strain 7KO:roGFP; 1 μM niclosamide in combination with 0.5 μM colistin, FIG. 60 C) of the same molecule?
A: Its value is “irreversible increase in intracellular redox stress”.

Q: What about the “intracellular redox stress (405/480 nm ratio)” value (E. coli strain 7KO:roGFP; 1 μM niclosamide in combination with 0.5 μM polymyxin B, FIG. 60 D) of the same molecule?
A: The value was “irreversible increase in intracellular redox stress”.

Q: What about the “intracellular redox stress (405/480 nm ratio)” value (E. coli strain 7KO:roGFP; 1 μM niclosamide in combination with 25 μM PAβN (TolC efflux pump inhibitor), FIG. 60 B) of the same molecule?
A: Its value is “irreversible increase in intracellular redox stress”.

Q: What about the “intracellular redox stress (405/480 nm ratio)” value (E. coli strain 7KO:roGFP; niclosamide alone, FIG. 59) of the same molecule?
A: Its value is “did not experience significant redox stress”.

Q: What about the inhibition of growth (Pseudomonas aeruginosa [2]) of the same molecule?
A: Its inhibition of growth is “neither niclosamide nor oxyclozanide were active”.

Q: And the “toxicity / activity against MRSA” value (MRSA)?
A: Its value is “directly toxic”.

Q: What about the “growth inhibition effect” value (Acinetobacter baumannii [5]) of the same molecule?
A: The value was “synergistic growth inhibition effect”.

Q: What about the “intracellular redox stress (405/480 nm ratio)” value [6] of the same molecule?
A: Its value is “experienced increasing redox stress; also recorded: irreversible increase in intracellular redox stress”.

Q: What about the MIC ([7]; Sun and Zhang (1999)) of the same molecule?
A: The MIC was 0.5 to 1.0 µg/mL.

Q: And the “activity against non-replicating M. tuberculosis” value ([7]; grown in low oxygen conditions)?
A: The value was “active”.

Q: And the “toxicity to Enterococcus faecium” value (Enterococcus faecium)?
A: Its value is “directly toxic”.

Q: What about the toxicity against macrophages (macrophages) of the same molecule?
A: Its toxicity against macrophages is “did observe toxicity”.

Q: And the inhibition of growth (Enterobacter aerogenes)?
A: Its inhibition of growth is “neither niclosamide nor oxyclozanide were active”.

Q: What about the “growth inhibition effect” value (Escherichia coli; in conjunction with a polymyxin (polymyxin B or polymyxin E (colistin)), antibiotic-resistant and laboratory strains, FIGS. 1-12) of the same molecule?
A: Its value is “synergistic growth inhibition effect”.

Q: What about the anti-quorum sensing activity [8] of the same molecule?
A: Its anti-quorum sensing activity is “highest anti-quorum sensing activity”.

Q: And the inhibition of growth (Acinetobacter baumannii [3])?
A: The inhibition of growth was “neither niclosamide nor oxyclozanide were active”.

Q: What about the “growth inhibition effect” value (Klebsiella pneumoniae [9]) of the same molecule?
A: The value was “synergistic growth inhibition effect”.

Q: What about the “growth inhibition effect” value (Salmonella enterica) of the same molecule?
A: Its value is “synergistic growth inhibition effect”.

Q: And the “uncoupling of the membrane potential” value (M. tuberculosis)?
A: The value was “uncoupled the membrane potential”.

Q: What about the minimum inhibitory concentration [10] of the same molecule?
A: Its minimum inhibitory concentration is “sub-micromolar”.

Q: And the “direct toxicity to Gram negative bacteria” value (Gram negative bacteria)?
A: The value was “directly toxic”.

Q: What about the inhibition of growth (P. aeruginosa) of the same molecule?
A: Its inhibition of growth is “failed to inhibit the growth”.

Q: And the “growth inhibition effect” value (Enterobacter cloacae)?
A: The value was “synergistic growth inhibition effect”.

Q: With `Cc1cc(C(C#N)c2ccc(Cl)cc2)c(Cl)cc1NC(=O)c1cc(I)cc(I)c1O` (stereo not drawn) [closantel, N-[5-Chloro-4-[(4-chlorophenyl)-cyanomethyl]-2-methylphenyl]-2-hydroxy-3,5-diiodobenzamide] as the molecule, how does the “toxicity / activity against MRSA” value (MRSA) read?
A: Its value is “active”.

Q: With `O=[N+]([O-])c1ccc(O)c([N+](=O)[O-])c1` [2,4-dinitrophenol] as the molecule, how does the “synergistic effect in combination with colistin” value (Escherichia coli; with colistin, E. coli MG1655, FIGS. 45, 46, 53-58) read?
A: The value was “only weak synergistic effect”.
